Results from PubChem BioAssay AID179 (DTP/NCI, 2004).
pEC50, pIC50: −log10 of the molar value. Calls of active or inactive are those of the source.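 How the source made its calls: active means compounds giving half or more protection of infected cells from virus-caused growth loss, again on retest; inactive means the rest.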 *1 amine or outer side, *2 acyl side, *3 side chain or, on linkers, in order; H or OH if unused. Where a SMILES comes first, the peptide text is derived from it. [ ]: non-standard residue; d: D form. The star is where a group is joined. ξ: configuration not given here. X15 = O=C([C@H]1CCC[C@H]1N[*:1])[*:2]; Fmoc = O=C(OCC1c2ccccc2-c2ccccc21)*; ξW = NC(Cc1c[nH]c2ccccc12)C(=O)O; ξF = NC(Cc1ccccc1)C(=O)O; Boc = CC(C)(C)OC(=O)*; ξK = NCCCCC(N)C(=O)O; ξT = CC(O)C(N)C(=O)O; OtBu = CC(C)(C)O*; tBu = CC(C)(C)*

System: CEM cells HIV-1 protection, formazan growth assay
Test: NCI AIDS Antiviral Assay
Settings: for pIC50: measured here: growth of uninfected CEM cells
Method in brief: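 Human CEM cells, uninfected and HIV-1-infected, received five drug concentrations, and growth was read by soluble formazan assay. Compounds giving at least 50% protection were retested; reproducible 100% protection defined confirmed active.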

| SMILES | outcome | pEC50 | pIC50 |
| --- | --- | --- | --- |
| CS1(=O)=N/C(=N\C(=O)Nc2ccccc2)c2ccccc21 (configuration not stated) | inactive | – | – |
| Cn1ccnc1CCc1ccc(Cl)cc1Cl | – | < 3.15 | 4.15 |
| CC12OC3(C)OC(=O)C(c4ccccc4)(O1)C3(C)O2 (configuration not stated) | inactive | – | – |
| CC(=O)N1C(=O)/C(=C\C(=O)c2ccc(Cl)cc2)c2ccccc21 | – | < 4.00 | 5.83 |
| Cc1ccc(S(=O)(=O)N/N=C\C2c3ccccc3-c3ccccc32)cc1 | – | < 3.70 | 5.66 |
| CSc1nc(NC2OC(COC(C)=O)C(OC(C)=O)C(OC(C)=O)C2OC(C)=O)c(-c2csc(N)n2)c(=O)n1C (configuration not stated) | inactive | – | – |
| COc1cc2c3c([nH]c2c(OC)c1OC)CCN(Cc1ccccc1)C3 | – | < 3.70 | 4.18 |
| CC(C)C(NC(=O)OCC1c2ccccc2-c2ccccc21)C(=O)NC(CCC(=O)OC(C)(C)C)C(=O)OC(C)(C)C (configuration not stated) (Fmoc-Val-Glu(OtBu)-OtBu; configuration not given here) | – | < 3.70 | 4.61 |
| CCOC(=O)C(CC(C)C)NC(=O)c1cc(SC#N)c(C)c2c1Nc1c(c(C)c3oc(=O)c(C)nc3c1C(=O)NC(CC(C)C)C(=O)OCC)O2 (configuration not stated) | – | < 5.30 | < 5.30 |
| CC(=O)OCC1OC(N2C(=O)NC(=O)C3C=C4CCCCC4=CC32)C(OC(C)=O)C1OC(C)=O (configuration not stated) | – | < 3.70 | < 3.70 |
| [O-][N+]1=C(c2ccccc2)COc2ccccc21 | – | < 3.94 | < 3.94 |
| Cc1c(N=Nc2ccccc2)c(C)n(C2OC(CO)C(O)C(O)C2O)c(=S)c1C#N (configuration not stated) | – | < 3.70 | 4.64 |
| COc1ccc(C23c4ccc(OC)cc4CC2(c2ccc([N+](=O)[O-])cc2)Cc2cc(OC)ccc23)cc1 (configuration not stated) | – | < 3.70 | < 3.70 |
| CSC(=NCCc1c[nH]c2ccccc12)NC#N | – | < 3.70 | < 3.70 |
| COc1cc(C2C(Cl)C(=O)N2n2cnc3ccccc3c2=O)cc(OC)c1OC (configuration not stated) | – | < 5.18 | < 5.18 |
| O=C1C=CC(=O)N1Nc1ccc([N+](=O)[O-])cc1[N+](=O)[O-] | – | < 3.70 | 3.96 |
| Cn1nc(-c2ccccc2)c(C(=O)/C=C/c2ccc(F)cc2)c(N2CCOCC2)c1=O | – | < 4.06 | < 4.06 |
| COc1cc(Nc2nc3ccccc3nc2C(=O)O)cc(OC)c1OC | – | < 3.70 | 5.05 |
| CCCCCCSCC/C(C)=N\OC | – | < 3.70 | < 3.70 |
| O=C1C(/C=N\C(=S)NCc2ccccc2)=C(O)c2ccccc21 | – | < 3.70 | 4.17 |
| CN(C)c1ccc(/C=N/NC2=N/C(=C\c3ccco3)C(=O)N2)cc1 | – | < 4.00 | < 4.00 |
| CCOC(=O)NN(C(=O)OCC)C(=C(C1=CCCCC1)N1CCOCC1)N(NC(=O)OCC)C(=O)OCC | – | < 3.70 | < 3.70 |

| SMILES | outcome | pEC50 | pIC50 |
| --- | --- | --- | --- |
| CCOP(=O)(OCC)C1CCCOC1=O (configuration not stated) | inactive | – | – |
| Cc1ccc(S(=O)(=O)[C@@H](Cl)[C@H]2N=C(Cl)NN=C2c2ccccc2)cc1 | – | < 3.70 | 4.43 |
| c1cc2nnsc2s1 | – | < 3.60 | < 3.60 |
| Nc1ccc(-c2nc3sc(-c4ccc(N)cc4)nc3s2)cc1 | – | < 4.79 | < 4.79 |
| Cc1noc(C)c1C1=CCCCc2ccccc21 | – | < 4.52 | < 4.52 |
| Cc1cc2nc3n[nH]c(N)c3nc2cc1C | – | < 3.70 | < 3.70 |
| CC#CCCC1CCCCN(C(=O)OC)C1OCC (configuration not stated) | – | < 3.03 | 3.78 |
| COC(=O)CC12CC(CC(=O)O1)N(C(=O)Nc1ccccc1)O2 (configuration not stated) | – | < 4.11 | < 4.11 |
| C=CCC(N(C)C(=O)[C@H](Cc1ccccc1)NC(=O)OCc1ccccc1)P(=O)(Oc1ccccc1)Oc1ccccc1 (some centres not stated) | – | < 3.70 | 4.11 |
| COc1ccccc1Nc1nc2c([nH]1)c(=O)n(C)c(=O)n2C | – | < 3.70 | < 3.70 |
| O=C(Nc1ccc(C(F)(F)F)cc1[N+](=O)[O-])C(=O)Nn1c(=S)[nH]c2ccccc2c1=O | – | < 4.10 | < 4.10 |
| CC1=C(O)c2cn(C)cc2C(=O)C1=O | inactive | – | – |
| CC(C)(C)C(=O)C(Cc1ccccc1)C(=O)C(C)(C)C | inactive | – | – |
| CC(CC(=O)Nc1ccc(NC(=O)CC(C)N=NC(N)=O)cc1)N=NC(N)=O (configuration not stated) | – | < 3.89 | < 3.89 |
| COc1cc(/C=C2\Cc3ccccc3C2=O)cc(OC)c1OC | – | < 4.63 | < 4.63 |
| CC(OC(C)(C)C)C1NC(=O)C(CCCCNC(=O)OC(C)(C)C)NC(=O)C(Cc2c[nH]c3ccccc23)NC(=O)C(Cc2ccccc2)NC(=O)[C@H]2CCC[C@H]2NC(=O)C(Cc2ccccc2)NC1=O (some centres not stated) (cyclo([X15][ξF][ξW][ξK](Boc)[ξT](tBu)[ξF])) | inactive | – | – |
| CCOC1CN=C(Nc2cccc3ccccc23)S1 (configuration not stated) | – | < 3.70 | 3.79 |
| CC(=O)C(CN(C)C)C(c1ccccc1)c1c(O)c2ccccc2oc1=O (configuration not stated) | – | < 4.19 | 4.96 |
| Cc1nc(C)c(N2CCN(CN)CC2)c(=O)[nH]1 | – | < 3.70 | < 3.70 |
| COc1cccc(N2CCc3c(C)c(C#N)c4nc5ccccc5n4c32)c1 | – | < 4.00 | < 4.00 |
| COc1ccc(N2C(=O)C(C#N)=C(SC)C(C#N)C2=O)cc1 (configuration not stated) | – | < 3.70 | 3.76 |
| O=C(Cc1ccccc1)NN1C(=O)C(Cl)C1c1cccc(O)c1 (configuration not stated) | – | < 4.39 | 4.81 |

| SMILES | outcome | pEC50 | pIC50 |
| --- | --- | --- | --- |
| C[CH2][Ge]([CH2]C)([CH2]C)[O]C(=O)C([O][Ge]([CH2]C)([CH2]C)[CH2]C)c1ccccc1 (configuration not stated) | – | < 3.70 | 4.68 |
| CCOC(=O)C1(C)CCC(C(=O)OC)C1=O (configuration not stated) | – | < 3.10 | 4.28 |
| c1ncc(C23C4C5C6C4C2C6C53)[nH]1 (configuration not stated) | – | < 3.70 | 3.81 |
| COC(=O)c1ccc(OCc2ccc3nc(-c4ccccc4)c(Cl)nc3c2)cc1 | – | < 3.70 | < 3.70 |
| CCOC(=O)C(C(=O)OCC)c1ccc([N+](=O)[O-])o1 | – | < 3.88 | 5.73 |
| O=C(/C=C/C1C(=O)NC(=O)NC1=O)CC(=O)C(=O)Nc1cc(Cl)c(Cl)cc1Cl | – | < 3.68 | < 3.68 |
| Cc1cc(=O)[nH]c(N/N=C/c2ccc(Cl)c(Cl)c2)n1 | – | < 4.61 | 4.91 |
| Cc1cc(=O)oc2cc(NCS(=O)(=O)O)ccc12 | – | < 3.21 | < 3.21 |
| COc1ccccc1NC(=O)C(=O)C(c1cnc2ccc([N+](=O)[O-])cc2n1)[N+](=O)[O-] (configuration not stated) | – | < 3.50 | 4.05 |
| CN1C(=O)N/C(=N/c2nc(Cc3ccc4c(c3)OCO4)cn2C)C1=O | – | < 5.80 | < 5.80 |
| c1csc(-c2ccsc2-c2cccs2)c1 | – | < 3.70 | 4.01 |
| O=C(/C=C\c1ccccc1-c1ccccc1)c1ccccc1 | – | < 3.70 | < 3.70 |
| CCOc1c(Cc2ccccc2)c(=O)n2c3ccccc3n3c(=O)n(C)c(=O)c1c23 | – | < 5.19 | < 5.19 |
| COc1cc2ccn3c4cc(OC)c(OC)cc4cc3c2cc1OC | – | 5.10 | 5.09 |
| O=C1C2C=CC(C2)C(c2ccc(O)cc2)N1O (configuration not stated) | – | < 3.11 | < 3.11 |
| CC1(C)CC[C@]2(C(=O)O)CCC3(C)C(=CCC4[C@@]5(C)CC[C@H](OC6OCC(O)C(O)C6OC6OC(CO)C(O)C(O)C6O)C(C)(C)C5CC[C@]43C)C2C1 (some centres not stated) | inactive | – | – |
| CC(=O)CN(Cc1cc(C)c2c(c1)c1ccccc1n2Cc1ccccc1)S(=O)(=O)c1ccc(C)cc1 | – | < 4.71 | < 4.71 |
| COc1ccc(-c2c(C#N)c(-c3ccc(C)cc3)n(NS(=O)(=O)c3ccccc3)c(=O)c2C#N)cc1 | – | < 3.70 | 4.53 |
| [Pt].c1ccc([PH+](CC[PH+](CC[PH+](c2ccccc2)c2ccccc2)CC[PH+](c2ccccc2)c2ccccc2)c2ccccc2)cc1 | – | < 4.66 | 6.38 |
| CO[C@H]1[C@H](O)[C@H](O[C@H]2CC[C@@]3(C)[C@H](CC[C@@H]4[C@@H]3CC[C@]3(C)[C@@H](C5=CC(=O)OC5)CC[C@]43O)C2)O[C@@H](C)[C@@H]1O | inactive | – | – |
| O=c1[nH]c(=O)n(C2OC(CO)C(O)C2O)cc1F (configuration not stated) | – | < 4.70 | 8.20 |
| CC(C)=NOC(=O)CNC(=O)C(Cc1ccccc1)NC(=O)C(C)NC(=O)OC(C)(C)C (configuration not stated) | – | < 3.70 | < 3.70 |

| SMILES | outcome | pEC50 | pIC50 |
| --- | --- | --- | --- |
| COC(=O)CNC(=O)c1cc(C)cc2c1Oc1c(cc(C)cc1C(=O)NCC(=O)OC)S2 | – | < 3.70 | < 3.70 |
| CC(C)(C)[Si](C)(C)OC[C@H](CO)NC(=O)OCc1ccccc1 | – | < 3.70 | 4.41 |
| CCCCCCCCSC(=O)NCCCC | inactive | – | – |
| COc1cc2c3c(c1OCc1ccccc1)NCCC3NCC2 (configuration not stated) | inactive | – | – |
| CN1C(=O)CC2(C)C1=CCc1scnc12 (configuration not stated) | – | < 3.70 | < 3.70 |
| CCN(CC)c1c(-c2c(OC(C)C)c(=O)c2=O)c(=O)n2ccsc2c1OC(C)=O | – | < 3.70 | 3.85 |
| COc1c(O)cc2c(c1O)C(=O)C1=C(CCCC1)C2=O | – | < 4.01 | 4.91 |
| O=C(Nc1ccc(Cl)c(Cl)c1)OCCN1c2ccccc2Sc2ccccc21 | – | < 3.70 | 4.42 |
| C=CCNC(=O)NC1=CSC2=NC(=O)C3(NN12)c1ccccc1-c1ccccc13 | – | < 3.70 | 4.23 |
| CC(O)CN1C(=O)C2C3C=CC(C3)C2C1=O (configuration not stated) | – | < 3.70 | < 3.70 |
| O=C(c1ccccc1)[C@H]1Nc2ccc(Cl)cc2C2c3ccccc3CC21 (some centres not stated) | – | < 4.84 | < 4.84 |
| Cc1ccc(C(=O)Nc2ccc(CP(=O)(O)O)cc2CP(=O)(O)O)cc1N | – | < 3.76 | < 3.76 |
| COC1OC2COC(c3ccccc3)OC2C(OS(=O)(=O)c2ccc(C)cc2)C1OS(=O)(=O)c1ccc(C)cc1 (configuration not stated) | inactive | – | – |
| Cc1cc(NS(=O)(=O)c2ccc(Nc3c4ccccc4nc4c(C(=O)N5CCN(CCO)CC5)cccc34)cc2)no1 | – | < 4.42 | < 4.42 |
| O=C(/C=C/c1ccccc1)NC1C=Nc2ccc([N+](=O)[O-])cc2NC1=O (configuration not stated) | – | < 3.99 | 4.03 |
| Cc1c2ccccc2c(CSCC(N)C(=O)O)c2ccccc12 (configuration not stated) | – | < 3.70 | < 3.70 |
| CN(N)c1nc(N)c(C#N)c(C#N)c1C#N | – | < 4.00 | < 4.00 |
| CN1C(=S)NC2C(O)C(O)C(CO)OC21 (configuration not stated) | – | < 2.97 | < 2.97 |
| CC1OC(=O)N(CCCC=C2SCCCS2)C1=O (configuration not stated) | inactive | – | – |
